The source of these data is PMC12584836, “Rubus caesius leaves and stems in antiaging skin care products: antityrosinase, anticollagenase, antimicrobial activity, and transdermal distribution of main phenolic acids” (Pharmaceutical Biology, 2025).

One series concerns B. subtilis ATCC6633. As to the kind of experiment: Antibacterial broth microdilution. Type of series: cell-based. As to conditions: Bacillus subtilis, standard. How it is done: (§1) Brain-heart infusion broth (BHI, Becton Dickinson) supplemented with 10% bovine serum was used for the cultivation of Streptococcus. […] Corynebacterium diphtheriae ZMF was cultured in Brain-heart infusion broth (BHI, Becton Dickinson) supplemented with 10% bovine serum under aerobic conditions at 37 °C for 72 h. Fungal strains-Candida albicans (ATCC10231), Candida albicans (ATCC26790), Candida [NT]200), Candida krusei (ATCC6258), Candida parapsilosis (ATCC22019) were grown in Sabourauda broth (SB, Becton Dickinson), under aerobic conditions at 37 °C for 72 h. For post-incubation viability assessment, BHI blood agar plates, MH agar plates, and Sabouraud agar plates were used. Active cultures were prepared by transferring cells from stock cultures into appropriate broth, as described above. […] Cultures were then diluted in the same broth to achieve an optical density corresponding to approximately 10^6 colony-forming units per milliliter (CFU/mL) for all bacteria strains except C. acnes and C. diphtheriae ZMF. […] [2014]). The minimum inhibitory concentration (MIC) was determined using the broth microdilution method in 96-well plates. Each well was filled with 100 μL of broth. […] These solutions were serially diluted and added to the first well of each row. Serial twofold dilutions were performed by transferring 100 μL from well to well up to the twelfth well, from which 100 μL was discarded. […] Ampicillin served as the reference standard, with concentrations ranging from 128 to 0.0625 μg/mL. Plates were incubated under the appropriate conditions at 37 °C for […] (Clostridium sp. was incubated anaerobically). MIC values were determined by visual observation and defined as the lowest extract concentration that prevented visible microbial growth. To determine the minimum bactericidal concentration (MBC), 100 μL from wells showing no visible growth were plated on agar media. […] The MBC was defined as the lowest concentration of extracts required to completely eliminate viable microorganisms (Hałasa et al. [2014]).

For another series, the system named is C. acnes ATCC6919. The series is described as follows: Antibacterial broth microdilution. Type of series: cell-based. As to conditions: Cutibacterium acnes, standard. The protocol: as §1
The next series relates to C. diphtheriae. The series is described as follows: Antibacterial broth microdilution. The following applies: Corynebacterium diphtheriae, standard. Type of series: cell-based. The protocol:
as §1

The test system of another series is M. catarrhalis PCM2340. The series is described as follows: Antibacterial broth microdilution. The following applies: Moraxella catarrhalis, standard. Type of series: cell-based. How it is done: as §1
The subject of a further series is S. epidermidis ATCC14990. The series is described as follows: Antibacterial broth microdilution. The following applies: Staphylococcus epidermidis, standard. In kind it is cell-based. How it is done:
as §1

The next series deals with S. equinus ATCC15351. As to the kind of experiment: Antibacterial broth microdilution. As to conditions: Streptococcus equinus, standard. Type of series: cell-based. How it is done:
as §1

Series [1] concerns Streptococcus β hemolytic group G. The series is described as follows: Antibacterial broth microdilution. The following applies: S. β-hemolytic group G, standard. Type of series: cell-based. How it is done: as §1
Series [2] is described as follows: ABTS radical scavenging assay. Type of series: biochemical. The protocol:
(§2) Water and ethanol extracts from Rubus caesius leaves and stems were freshly prepared by dissolving the dry extract in water. The samples were tested at concentrations ranging from 1 to 1000 µg/mL. Ascorbic acid was used as the reference standard in both assays. All measurements were performed using a 96-well microplate reader (Epoch, BioTek System, Winooski, VT, USA). IC50 values for each extract were calculated using the GraphPad Prism 9 software (version 9.0.0, GraphPad Software, San Diego, CA, USA). Each test was performed in triplicate and repeated three times (n = 9).
The antioxidant activity of the Rubus caesius extracts was determined using ABTS radical scavenging method as described by Thring et al. ([2009]), with minor modifications according to Hering et al. ([2025]). The reaction mixture containing extracts or standard were incubated in the dark for 20 min at 30 °C. After incubation, absorbance was measured at 750 nm. The negative control sample consisted of the reaction mixture and water instead of extract or standard.

Series [3] in a line: Molybdenum reduction (phosphomolybdenum) assay. Type of series: biochemical. How it is done:
as §2
The total reducing power of water and ethanol extracts from Rubus caesius was estimated according to the phosphomolybdenum method described by Prieto et al. ([1999]), with modifications by Hering et al. ([2025]). The samples (extract or standard) were mixed with the reagent solution and incubated at 90 °C for 90 min. After cooling, 250 µL of each reaction mixture was transferred to a 96-well microplate reader (Epoch, BioTek System, Winooski, VT, USA), and absorbance was measured at 700 nm. The negative control consisted of the reaction mixture and water.

A short description of series [4]: Skin permeation from hydrogels in Franz diffusion cells. In kind it is in vitro ADME. As to conditions: porcine skin. How it is done:
Permeation experiments were conducted using Franz diffusion cells (Phoenix DB-6, ABL&E-JASCO, Wien, Austria), with a donor chamber area of 1 cm^2 and 10 mL acceptor chamber filled with phosphate-buffered saline (PBS, pH 7.4). The system was maintained at 37.0 ± 0.5 °C, and the acceptor solutions were continuously stirred.
Skin samples were wrapped in aluminum foil, frozen at −20 °C for no longer than three months. […] Skin impedance was measured by immersing the probe tips in the donor and acceptor chambers filled with PBS.
One gram of each hydrogel was applied to the donor chamber. All chambers were sealed with plastic stoppers to minimize evaporation. […] Phenolic acid concentrations were determined by HPLC.
J-shaped profiles and the following equations were used: (1) A=JSS(t−LT) where A is the cumulative amount permeated (μg·cm^−2) of tested phenolic acids permeating into the receptor compartment; JSS is the steady-state flux (μg·cm^−2·h^−1); t is the time (h), and LT is the lag time (h).
The steady-state flux was estimated from the slope of the linear portion of the plot of cumulative mass in the acceptor phase over time. The lag time (LT) was determined from the x-intercept of the linear portion of the plot of cumulative mass in the acceptor phase over time and was used to calculate the […] (KP) as follows: (2) KP=JSS/C where C is the concentration in the donor phase.

A short description of series [5]: Skin accumulation after 24 h permeation. In kind it is in vitro ADME. The following applies: after 24-h penetration; HL-E application; porcine skin. The protocol:
Following incubation, samples were homogenized (IKA®T18 digital ULTRA TURRAX, Germany) for 3 min and centrifuged at 3500 rpm for 5 min. The resulting supernatants were analyzed by HPLC spectrophotometry, with methanol used as a blank. Accumulated phenolic acids were expressed as amount (µg) per gram of skin tissue (µg·g skin^−1).

Series [6] has as its target Collagenase from Clostridium histolyticum. The series is described as follows: Collagenase inhibition assay (FALGPA substrate). In kind it is biochemical. How it is done: Preparation of the extracts and calculation of IC50 values were carried out as described in the Antioxidant tests section. The effect of Rubus caesius extracts on collagenase and tyrosinase activity was estimated using the spectrophotometric method in a 96-well microplate reader (Epoch, BioTek System, Winooski, VT, USA).
The addition of the substrate started the reaction. Changes in absorbance were monitored every 20 s for a total of 20 min. The blank sample contained buffer, substrate, and the appropriate concentration of extract or standard. The negative control sample contained water instead of extract or standard. All tests were performed in triplicate and repeated three times (n = 9).
The effect of Rubus caesius extracts on collagenase activity was assessed based on the method described by Thring et al. ([2009]), with modifications introduced by Hering et al. ([2023]). FALGPA was used as the substrate, and oleanolic acid served as the positive control. Reaction mixtures containing the extract (0–400 µg/mL) were pre-incubated for 15 min. The reaction was initiated by the addition of 0.8 mM FALGPA, and absorbance was continuously measured at 335 nm. The reaction buffer was composed of tricine (50 mM, pH 7.5) with 400 mM NaCl and 10 mM CaCl2.

Each structure is given as a SMILES string. Converted amounts (≈) assume the structure as drawn. Marks after values point to notes of the source that are not given here.

On to `CC1(C)S[C@@H]2[C@H](NC(=O)[C@H](N)c3ccccc3)C(=O)N2[C@H]1C(=O)O` [Ampicillin, ampicillin], for which the MIC turned out to be 0.4 µg/mL (≈ 1.14 µM) in the series with B. subtilis ATCC6633; 32 µg/mL (≈ 91.6 µM) in the series on C. acnes ATCC6919; 16 µg/mL (≈ 45.8 µM) against C. diphtheriae; 2.5 µg/mL (≈ 7.15 µM) against M. catarrhalis PCM2340; 0.3 µg/mL (≈ 0.859 µM) against S. epidermidis ATCC14990; 16 µg/mL (≈ 45.8 µM) with S. equinus ATCC15351. For the same compound, in [1], the lowest concentration to inhibit growth (MIC) was 16 µg/mL (≈ 45.8 µM).

`O=C1O[C@H]([C@@H](O)CO)C(O)=C1O` [Ascorbic acid, ascorbic acid]: the “ABTS radical scavenging IC50” value in series [2] was 14.77 ± 0.5 µg/mL. Further, the “Molybdenum reduction IC50” value in series [3] worked out at 78.25 ± 1.25 µg/mL.

On to `O=C(O)c1cc(O)c(O)c(O)c1` [Gallic acid, gallic acid], for which the “Phenolic acids concentration in the acceptor fluid (cumulative mass)” value (“Phenolic acids concentration” below) in series [4] (from hydrogel HL-E, 1 h) was 3.64 ± 0.12^a µg/cm^2; in series [4] (from hydrogel HL-E, 2 h) it was 4.54 ± 0.47^a µg/cm^2; in series [4] (from hydrogel HL-E, 3 h), 6.18 ± 0.35^a µg/cm^2; in series [4] (from hydrogel HL-E, 5 h), 10.24 ± 0.97^a µg/cm^2; in series [4] (from hydrogel HL-E, 8 h) it was 16.09 ± 1.19^a µg/cm^2; in [4] (from hydrogel HL-E, 24 h) it was 49.62 ± 2.18^a µg/cm^2. The “Phenolic acids concentration” value in [4] (from hydrogel HL-E, 24 h, listed as gallic acid) is listed as 49.62 ± 2.18 µg/cm^2; in [4] (from hydrogel HS-E, 5 h), 3.95 ± 0.18^b µg/cm^2; in series [4] (from hydrogel HS-E, 8 h), 4.69 ± 0.19^b µg/cm^2; in series [4] (from hydrogel HS-E, 24 h), 7.19 ± 0.47^b µg/cm^2. For the same compound, the “D·10^4, diffusion coefficient” value in series [4] (from hydrogel HL-E) came out at 25.73 ± 1.64 cm^2/h; in [4] (from hydrogel HS-E), 2.01 ± 0.09 cm^2/h. Besides, the “JSS, steady-state flux” value in series [4] (from hydrogel HL-E) stood at 2.08 ± 0.08 µg/cm^2·h; in series [4] (from hydrogel HS-E), 0.88 ± 0.04 µg/cm^2·h. Besides, the entries for the “LT, lag time” value in series [4] (from hydrogel HL-E) and in series [4] (from hydrogel HS-E) were 0.16 ± 0.02 h and 2.08 ± 0.09 h, respectively. Moreover, the “Q%24h, percentage of applied dose in acceptor phase after 24 h” value in series [4] (from hydrogel HL-E) is 5.78 ± 0.25%; in series [4] (from hydrogel HL-E, listed as gallic acid), 5.78%; in series [4] (from hydrogel HS-E), 4.78 ± 0.35%. For the same compound, the “Accumulation of phenolic acid in the skin” value in series [5] is given as 70.62 ± 4.06 µg/g skin.

`O=C(O)c1ccc(O)c(O)c1` [Protocatechuic acid, protocatechuic acid]: the “Phenolic acids concentration” value in [4] (from hydrogel HL-E, 2 h) is reported as 3.28 ± 0.31^a µg/cm^2; in series [4] (from hydrogel HL-E, 3 h), 5.86 ± 0.28^a µg/cm^2; in series [4] (from hydrogel HL-E, 5 h) it was 8.59 ± 0.65^a µg/cm^2; in series [4] (from hydrogel HL-E, 8 h) it was 11.94 ± 1.91^a µg/cm^2; in [4] (from hydrogel HL-E, 24 h) it was 37.95 ± 2.96^a µg/cm^2; in [4] (from hydrogel HL-E, 24 h, listed as protocatechuic acid) it was 37.95 ± 2.96 µg/cm^2. Besides, the “Phenolic acids concentration” value in series [4] (from hydrogel HS-E, 5 h) is given as 3.04 ± 0.03^a µg/cm^2; in series [4] (from hydrogel HS-E, 8 h), 3.84 ± 0.18^b µg/cm^2; in [4] (from hydrogel HS-E, 24 h), 4.57 ± 0.30^b µg/cm^2. In addition, the entries for the “D·10^4, diffusion coefficient” value in [4] (from hydrogel HL-E) and in series [4] (from hydrogel HS-E) were 6.57 ± 0.77 cm^2/h and 1.91 ± 0.09 cm^2/h, respectively. Moreover, the “JSS, steady-state flux” value in [4] (from hydrogel HL-E) came out at 2.10 ± 0.17 µg/cm^2·h; in series [4] (from hydrogel HS-E), 0.73 ± 0.04 µg/cm^2·h. Moreover, the “LT, lag time” value was 0.63 ± 0.08 h in series [4] (from hydrogel HL-E) and 2.19 ± 0.10 h in [4] (from hydrogel HS-E). In addition, the “Q%24h, percentage of applied dose in acceptor phase after 24 h” value worked out at 4.49 ± 0.35% in series [4] (from hydrogel HL-E); 4.49% in series [4] (from hydrogel HL-E, listed as protocatechuic acid); 2.45 ± 0.16% in series [4] (from hydrogel HS-E). Further, the “Accumulation of phenolic acid in the skin” value in series [5] is recorded as 61.46 ± 12.57 µg/g skin.

For `CC1(C)CC[C@]2(C(=O)O)CC[C@]3(C)C(=CC[C@@H]4[C@@]5(C)CC[C@H](O)C(C)(C)[C@@H]5CC[C@]43C)[C@@H]2C1` [oleanolic acid], the “IC50 of collagenase inhibition” value in series [6] was 31.72 ± 0.65 µg/mL.
